These results are taken from patent publication US12637467B2, “Inhibitor of BTK and mutants thereof” (Newave Pharmaceutical Inc., priority 2019, dated 2026).

“Also recorded” adds a separate entry of the source.

One data set relates to REC-1 xenograft. Nature of the data set: REC-1 xenograft model. The format is in vivo, mice. The conditions noted are these: for Tumor volume: BIDX28. The text has this: Typically, athymic nude mice (CD-1 nu/nu) or SCID mice are obtained at age 6-8 weeks from vendors and acclimated for a minimum 7-day period. The cancer cells are then implanted into the nude mice. Depending on the specific tumor type, tumors are typically detectable about two weeks following implantation. When tumor sizes reach ˜100-200 mm^3, the animals with appreciable tumor size and shape are randomly assigned into groups of 8 mice each, including one vehicle control group and treatment groups. Dosing varies depending on the purpose and length of each study, which typically proceeds for about 3-4 weeks. Tumor sizes and body weight are typically measured three times per week. In addition to the determination of tumor size changes, the last tumor measurement is used to generate the tumor size change ratio (T/C value), a standard metric developed by the National Cancer Institute for xenograft tumor evaluation. In most cases, % T/C values are calculated using the following formula: % T/C=100×ΔT/ΔC if ΔT>0. When tumor regression occurred (ΔT<0), however, the following formula is used: % T/T0=100×ΔT/T0. Values of <42% are considered significant.

The target of data set [1] is T1, WT BTK (Homo sapiens, UniProt Q06187). Briefly: In vitro dialysis assay (irreversibility assay), WT BTK. Format: biochemical. The conditions noted are these: for Conclusion (WT BTK): reversible or irreversible inhibition after 24 hr dialysis; for Recovery after 24 h dialysis: 0.003 mM compound pre-incubated with 2 nM BTK for 2 hr, dialyzed 24 hr against buffer with 40 mM ATP, BTK activity vs non-dialyzed samples. The method, then:
(§1) The compound-enzyme complex was dialyzed against the same buffer supplemented with 40 mM ATP for 24 hr. Cumulative dialysis factor >160,000×. After dialysis, the BTK activity was measured in the presence 40 mM ATP and 1 mM substrate peptide and compared to that in non-dialyzed samples. Assay buffer: 100 mM HEPES, pH7.5; 0.1% BSA, 0.01% Triton-X 100; 5 mM MgCl2; 1 mM DTT.

Data set [2] addresses T2, C481S BTK (Homo sapiens, UniProt Q06187, C481S). Briefly: Reversibility of binding to C481S BTK enzyme. Format: biochemical. The conditions noted are these: cysteine not available for covalent binding. The method, then: as §1
Data set [3] addresses T2, C481S BTK. Nature of the data set: Caliper-based kinase assay, C481S BTK. The format is biochemical. The conditions noted are these: 0.5 nM enzyme, 16 μM ATP, 3 h at room temperature; read-out: C481S BTK IC50 (nM) (reversible inhibition). Here is the method:
(§2) The reaction was then terminated with EDTA, final concentration 20 mM and the phosphorylated reaction product was quantified on a Caliper Desktop Profiler (Caliper LabChip 3000).

Data set [4] has as its target T1, WT BTK. Briefly: Caliper-based kinase assay, WT BTK. The format is biochemical. The conditions noted are these: 0.5 nM enzyme, 16 μM ATP, 3 h at room temperature; read-out: WT BTK IC50 (nM) (irreversible inhibition). Here is the method: as §2
For data set [5] the following is noted: rats, treatment for longer than 7 days; cited from earlier work.
The conditions of data set [6]: formulations containing GDC-0853, Phase I clinical trials; cited from earlier work.
[7] abbreviates: 10 mg/kg po, day 26 of the study.
Where [8] appears, read: 50 mg/kg po, day 28 of the study.

T1 sequence (Q06187 whole entry): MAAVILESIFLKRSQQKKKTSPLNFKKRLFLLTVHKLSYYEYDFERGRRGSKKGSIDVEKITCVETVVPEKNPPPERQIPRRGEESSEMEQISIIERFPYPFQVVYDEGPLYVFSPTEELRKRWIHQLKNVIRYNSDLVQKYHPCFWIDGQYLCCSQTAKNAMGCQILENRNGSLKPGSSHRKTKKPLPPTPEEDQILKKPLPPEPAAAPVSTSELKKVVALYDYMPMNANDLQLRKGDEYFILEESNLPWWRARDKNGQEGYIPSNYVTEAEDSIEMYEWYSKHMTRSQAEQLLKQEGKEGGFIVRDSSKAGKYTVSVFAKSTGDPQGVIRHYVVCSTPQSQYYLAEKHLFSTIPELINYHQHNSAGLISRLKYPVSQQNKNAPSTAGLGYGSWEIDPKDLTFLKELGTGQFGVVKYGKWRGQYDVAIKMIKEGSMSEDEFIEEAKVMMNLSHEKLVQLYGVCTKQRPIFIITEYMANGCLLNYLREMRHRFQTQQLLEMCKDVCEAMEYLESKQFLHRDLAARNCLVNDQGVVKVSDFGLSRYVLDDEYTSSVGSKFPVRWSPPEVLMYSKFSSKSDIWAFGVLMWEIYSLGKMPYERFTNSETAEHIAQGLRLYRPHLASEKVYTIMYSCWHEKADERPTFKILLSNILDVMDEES
T2 sequence (Q06187 whole entry C481S): as the sequence (Q06187 whole entry) above, with C481S counted along it

Turning to `CC#CC(=O)N1CCC[C@H]1c1nc(-c2ccc(C(=O)Nc3ccccn3)cc2)c2c(N)nccn12` [ACP-196, Acalabrutinib, reference compound], the Tumor volume came out at 672 mm^3 in the data set with REC-1 xenograft (setting [7]) and 108 mm^3 in the data set with REC-1 xenograft (setting [8]).
As to `C=CC(=O)Nc1cc(Nc2nc(-c3ccnc(N4CCn5c(cc6c5CC(C)(C)C6)C4=O)c3CO)cn(C)c2=O)ccc1N1CCN(C)CC1` [Example 2, N-(5-((6-(2-(7,7-dimethyl-1-oxo-1,3,4,6,7,8-hexahydro-2H-cyclopenta[4,5]pyrrolo[1,2-a]pyrazin-2-yl)-3-(hydroxymethyl)pyridin-4-yl)-4-methyl-3-oxo-3,4-dihydropyrazin-2-yl)amino)-2-(4-methylpiperazin-1-yl)phenyl)acrylamide], the “Conclusion (WT BTK)” value on WT BTK [1] is listed as “irreversible inhibitors; also recorded: Irreversible/covalent inhibition”. In addition, on C481S BTK [2], the “Mode of binding to C481S BTK” value is on record as “reversibly bind”.
Turning to `C=CC(=O)Nc1cc(Nc2nc(-c3ccnc(N4CCn5c(cc6c5CC(C)(C)C6)C4=O)c3CO)cn(C)c2=O)ccc1N1CCN(C2CCOCC2)C[C@@H]1C` [Example 22, N-(5-[[6-(2-[4,4-dimethyl-9-oxo-1,10-diazatricyclo[6.4.0.0^[2,6]]dodeca-2(6),7-dien-10-yl]-3-(hydroxymethyl)pyridin-4-yl)-4-methyl-3-oxopyrazin-2-yl]amino]-2-[(2S)-2-methyl-4-(oxan-4-yl)piperazin-1-yl]phenyl)prop-2-enamide], the “Recovery after 24 h dialysis” value on WT BTK [1] was approximately 1%. Besides, the “Conclusion (WT BTK)” value on WT BTK [1] is reported as “Irreversible/covalent inhibition”. The Tumor volume was 450 mm^3 with REC-1 xenograft (setting [7]); 201 mm^3 with REC-1 xenograft (12.5 mg/kg po, day 28 of the study); 58 mm^3 in the data set with REC-1 xenograft (25 mg/kg po, day 28 of the study); 56 mm^3 in the data set on REC-1 xenograft (setting [8]). In addition, the “efficacy compared with Acalabrutinib” value in the data set with REC-1 xenograft (REC-1 xenograft, 10 mg/kg, day 26 of the study) is recorded as “better efficacy than Acalabrutinib”. Besides, the “reduction of tumor growth” value with REC-1 xenograft (REC-1 xenograft, 12.5-50 mg/kg, day 28 of the study) is “dose-dependent reduction of tumor growth”.
For `C=CC(=O)Nc1cc(Nc2nc(-c3ccnc(N4CCn5c(cc6c5CC(C)(C)C6)C4=O)c3C(F)(F)F)cn(C)c2=O)ccc1N1CCN(C2COC2)C[C@@H]1C` [Example 28, (S)—N-(5-((6-(2-(7,7-dimethyl-1-oxo-1,3,4,6,7,8-hexahydro-2H-cyclopenta[4,5]pyrrolo[1,2-a]pyrazin-2-yl)-3-(trifluoromethyl)pyridin-4-yl)-4-methyl-3-oxo-3,4-dihydropyrazin-2-yl)amino)-2-(2-methyl-4-(oxetan-3-yl)piperazin-1-yl)phenyl)acrylamide], the IC50 (usually the concentration needed to halve the response being measured) at C481S BTK [3] is more than 1000 nM; at WT BTK [4] it was more than 100 nM.
With `C=CC(=O)Nc1cc(Nc2nc(-c3ccnc(N4CCc5ncccc5C4=O)c3CO)cn(C)c2=O)ccc1N1CCN(C2COC2)C[C@@H]1C` [Example 31, N-[5-([6-[3-(hydroxymethyl)-2-(5-oxo-7,8-dihydro-1,6-naphthyridin-6-yl)pyridin-4-yl]-4-methyl-3-oxopyrazin-2-yl]amino)-2-[(2S)-2-methyl-4-(oxetan-3-yl)piperazin-1-yl]phenyl]prop-2-enamide], at WT BTK [4], the IC50 was more than 100 nM.
The same measure, in the same setting: as for `C=CC(=O)Nc1cc(Nc2nc(-c3ccnc(N4CCc5ccncc5C4=O)c3CO)cn(C)c2=O)ccc1N1CCN(C2COC2)C[C@@H]1C` [Example 32, N-[5-([6-[3-(hydroxymethyl)-2-(1-oxo-3,4-dihydro-2,7-naphthyridin-2-yl)pyridin-4-yl]-4-methyl-3-oxopyrazin-2-yl]amino)-2-[(2S)-2-methyl-4-(oxetan-3-yl)piperazin-1-yl]phenyl]prop-2-enamide], the figure is more than 100 nM; as for `C=CC(=O)Nc1cc(Nc2nc(-c3ccnc(N4CCc5cccnc5C4=O)c3CO)cn(C)c2=O)ccc1N1CCN(C2COC2)C[C@@H]1C` [Example 33, N-[5-([6-[3-(hydroxymethyl)-2-(8-oxo-5,6-dihydro-1,7-naphthyridin-7-yl)pyridin-4-yl]-4-methyl-3-oxopyrazin-2-yl]amino)-2-[(2S)-2-methyl-4-(oxetan-3-yl)piperazin-1-yl]phenyl]prop-2-enamide], more than 100 nM.
Regarding `C=CC(=O)Nc1cc(Nc2nc(-c3ccnc(N4CCc5c(sc6c5CC(C)(C)C6)C4=O)c3CO)cn(C)c2=O)ccc1N1CCN(C2COC2)C[C@@H]1C` [Example 34, N-(5-[[6-(2-[4,4-dimethyl-9-oxo-7-thia-10-azatricyclo[6.4.0.0^[2,6]]dodeca-1(8),2(6)-dien-10-yl]-3-(hydroxymethyl)pyridin-4-yl)-4-methyl-3-oxopyrazin-2-yl]amino]-2-[(2S)-2-methyl-4-(oxetan-3-yl)piperazin-1-yl]phenyl)prop-2-enamide], the “Recovery after 24 h dialysis” value at WT BTK [1] is approximately 1%. Also, at WT BTK [1], the “Conclusion (WT BTK)” value is recorded as “Irreversible/covalent inhibition”. Also, the IC50 on C481S BTK [3] stood at 0.46 nM; on WT BTK [4], 0.073 nM.
In the case of `C=CC(=O)Nc1cc(Nc2nc(-c3ccnc(N4CCn5c(cc6c5CC(C)(C)C6)C4=O)c3CO)cn(C)c2=O)ccc1C1CN(C)C(=O)CN1C1COC1` (stereo not drawn) [Example 43], the “Conclusion (WT BTK)” value on WT BTK [1] is listed as “Irreversible/covalent inhibition”.
On the same count and under the same terms, as for `C=CC(=O)Nc1cc(Nc2nc(-c3ccnc(N4CCc5c(sc6c5CCCC6)C4=O)c3C)cn(C)c2=O)ccc1N1CCN(C2COC2)C[C@@H]1C` [Example 44, (S)—N-(2-(2-methyl-4-(oxetan-3-yl)piperazin-1-yl)-5-((4-methyl-6-(3-methyl-2-(1-oxo-3,4,5,6,7,8-hexahydrobenzo [4, 5]thieno[2,3-c]pyridin-2(1H)-yl)pyridin-4-yl)-3-oxo-3,4-dihydropyrazin-2-yl)amino)phenyl) acrylamide], the entry is “Irreversible/covalent inhibition”.
Consider `C=CC(=O)Nc1cc(Nc2nc(-c3ccnc(N4CCn5c(cc6c5CC(C)(C)C6)C4=O)c3C)cn(C)c2=O)ccc1N1CCN(C2COC2)CC1(C)C` [Example 45, N-[2-[2,2-dimethyl-4-(oxetan-3-yl)piperazin-1-yl]-5-[[6-(2-[4,4-dimethyl-9-oxo-1,10-diazatricyclo[6.4.0.0^[2,6]]dodeca-2(6),7-dien-10-yl]-3-methylpyridin-4-yl)-4-methyl-3-oxopyrazin-2-yl]amino]phenyl]prop-2-enamide], for which, at WT BTK [1], the “Recovery after 24 h dialysis” value is given as approximately 1% and the “Conclusion (WT BTK)” value is “Irreversible/covalent inhibition”.
As for `C=CC(=O)Nc1cc(Nc2nc(-c3ccnc(N4CCn5c(cc6c5CC(C)(C)C6)C4=O)c3C)cn(C)c2=O)cnc1N1CCN(C2COC2)C[C@@H]1C` [Example 46, N-(5-[[6-(2-[4,4-dimethyl-9-oxo-1,10-diazatricyclo[6.4.0.0^[2,6]]dodeca-2(6),7-dien-10-yl]-3-methylpyridin-4-yl)-4-methyl-3-oxopyrazin-2-yl]amino]-2-[(2S)-2-methyl-4-(oxetan-3-yl)piperazin-1-yl]pyridin-3-yl)prop-2-enamide], at WT BTK [1], the “Recovery after 24 h dialysis” value is approximately 1% and the “Conclusion (WT BTK)” value is “Irreversible/covalent inhibition”.
On to `C[C@H]1CN(C2COC2)CCN1c1ccc(Nc2cc(-c3ccnc(N4CCn5c(cc6c5CC(C)(C)C6)C4=O)c3CO)cn(C)c2=O)nc1` [GDC-0853, reference compound], for which the “Conclusion (WT BTK)” value at WT BTK [1] was “reversible WT BTK inhibitor”. Besides, the pancreatic toxicity result in data set [5] is on record as “leads to pancreatic toxicity”. The tolerability result in data set [6] is listed as “well-tolerated”.
